Tested on: 677734-321-R-J1-PDC complex spheroid viability
Assay: Anticancer human tumor 677734-321-R-J1-PDC patient-derived soft tissue sarcoma cell line growth inhibition [POLQ]
Conditions: for IC50: curve of first compound; for viability, T/C: stronger effect = lower value
Protocol: Multicellular complex tumor spheroid response to Polymerase (POL) inhibitors (novobiocin, ART-558, RP6685) in combination with a variety of drugs and investigational agents in selected tumor cell lines
The POL inhibitors (novobiocin, ART-558, and RP6685) were evaluated both individually and in combination with standard of care and investigational anticancer small molecules within a complex spheroid model of solid tumors. . Complex spheroids include a stromal component modeled by human endothelial cells (HUVEC) and fibroblasts modeled by human mesenchymal stem cells (MSCs). The concentration ranges selected for each drug and investigational agent were based upon clinically achievable concentrations if the clinical Cmax of the agent was known.
Compounds. The drugs and investigational agents: novobiocin (NSC847541), ART-558 (NSC835418), RP-6685 (NSC848927), peposertib (NSC802822), ceralasertib (NSC780249), elimusertib (NSC800525), camonsertib (NSC841442), AZD-1390 (NSC803789), olaparib (NSC753686), talazoparib (NSC767125), rucaparib (NSC756644), sotorasib (NSC818433), MRTX-1133 (NSC836407), SN-38 (NSC673596), topotecan (NSC609699), epotoside (NSC141540), doxorubicin (NSC123127), gemcitabine (NSC613327), 5-fluorouracil (NSC19893), paclitaxel (NSC125973), vemurafenib (NSC761431), MSA-2 (NSC828583), SN-011 (NSC837082), adavosertib (NSC754352), prexasertib (NSC758257), carboplatin (NSC241240) and oxaliplatin (NSC266046), were obtained from the National Cancer Institute (NCI) Developmental Therapeutics Program Chemical Repository (21). The FDA-approved anticancer drug set is available from the Developmental Therapeutics Program at https://dtp.cancer.gov/organization/dscb/obtaining/. […] The stock solutions were prepared in dimethyl sulfoxide (DMSO, Sigma-Aldrich, St. Louis, MO, cat. D2650), except for the platinum compounds which were prepared in saline (Quality Biological, Gaithersburg, MD, cat. 114-055-101), at 800-fold the tested concentration and stored at -70 degrees C prior to their use. All drugs and investigational agents were tested over a range starting from a high concentration at or near the clinical Cmax and decreasing in half-log increments. If the clinical Cmax for an agent had not been determined, the highest concentration tested was 10 microM, except for SN-38, which was tested at a high concentration of 1 microM.
Cell Culture. All cells were maintained in an incubator at 37 degrees C and 5% CO2 with 95% humidity. The PDC lines were cultured according to standard operating procedures established by the NCI PDMR (https://pdmr.cancer.gov). Table 3 of the manuscript, lists the cell lines along with the number of the three cell types plated to form the mct-spheroids and media for tumor cell growth. After thawing, all PDC lines, except 997537-175-T-J1-PDC and 415267-285-R-J2-PDC, were cultured in Matrigel-coated flasks prepared with a working solution of 1X Ham's F-12 nutrient mix, without supplementation (Thermo Fisher Scientific, cat. 11765054), 100 U/mL penicillin-streptomycin (Thermo Fisher Scientific, cat. 15140122), and 2.5% Matrigel (Corning Inc., Corning, NY, cat. 354248) for the first three passages. The two PDC lines 997537-175-T-J1-PDC and 415267-285-R-J2-PDC were cultured on uncoated flasks. The 857933-349-R-J2-PDC line was cultured in 6C/Colon 1B media containing advanced DMEM/F-12 (Thermo Fisher Scientific, cat. 12634028), 10 mM HEPES (Thermo Fisher Scientific, cat. 15630080), 1X GlutaMAX supplement (Thermo Fisher Scientific, cat. 35050061), 0.1 mg/mL primocin (InvivoGen, San Diego, CA, cat. ant-pm-2), 10% defined fetal bovine serum, heat inactivated (HyClone Laboratories Inc., Logan, UT, cat. SH30070.03HI), 50% L-WRN conditioned media (ATCC, cat. CRL-3276), 1.25 mM N-Acetyl-L-cysteine (Sigma-Aldrich, cat. A9165), 10 mM nicotinamide (Sigma-Aldrich, cat. N0636), 1X B-27 supplement (Thermo Fisher Scientific, cat. 17504044), 1X N-2 supplement (Thermo Fisher Scientific, cat. […]

[1] = second compound 0.0316 µM, first compound 0.0316 µM
[2] = second compound 0.0316 µM, first compound 0.1 µM
[3] = second compound 0.1 µM, first compound 0.0316 µM
[4] = second compound 0.1 µM, first compound 0.1 µM
[5] = second compound 0.316 µM, first compound 0.0316 µM
[6] = second compound 0.316 µM, first compound 0.1 µM
[7] = second compound 1 µM, first compound 0.0316 µM
[8] = second compound 1 µM, first compound 0.1 µM
[9] = second compound 3.16 µM, first compound 0.0316 µM
[10] = second compound 3.16 µM, first compound 0.1 µM
[11] = second compound 10 µM, first compound 0.0316 µM
[12] = second compound 10 µM, first compound 0.1 µM
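Note: spheroids exposed to compounds for one week.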
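Throughout, for viability, T/C: 100% = vehicle DMSO treated spheroids.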

Compound: CC1COCCN1c1cc(C2(O)CC3CCC(C2)O3)c2cnn(-c3ccn[nH]3)c2n1 (centres undefined) + Nc1ccc(C#CCN(C(=O)Cc2ncc(C(F)(F)F)cc2C(F)(F)F)c2ccc(F)cc2)nn1
- IC50 (second compound 0.0316 µM): < 31.6 nM
- IC50 (second compound 0.1 µM): < 31.6 nM
- IC50 (second compound 0.316 µM): < 31.6 nM
- IC50 (second compound 1 µM): < 31.6 nM
- IC50 (second compound 3.16 µM): < 31.6 nM
- IC50 (second compound 10 µM): < 31.6 nM
- viability, T/C [1]: 36.8%
- viability, T/C [2]: 20.4%
- viability, T/C (second compound 0.0316 µM, first compound 0.316 µM): 7.94%
- viability, T/C (second compound 0.0316 µM, first compound 1 µM): 7.29%
- viability, T/C (second compound 0.0316 µM, first compound 3.16 µM): 8.37%
- viability, T/C (second compound 0.0316 µM, first compound 10 µM): 6.3%
- viability, T/C [3]: 48.2%
- viability, T/C [4]: 15%
- viability, T/C (second compound 0.1 µM, first compound 0.316 µM): 10.1%
- viability, T/C (second compound 0.1 µM, first compound 1 µM): 7.88%
- viability, T/C (second compound 0.1 µM, first compound 3.16 µM): 10.1%
- viability, T/C (second compound 0.1 µM, first compound 10 µM): 7.23%
- viability, T/C [5]: 35.1%
- viability, T/C [6]: 11.7%
- viability, T/C (second compound 0.316 µM, first compound 0.316 µM): 8.93%
- viability, T/C (second compound 0.316 µM, first compound 1 µM): 7.29%
- viability, T/C (second compound 0.316 µM, first compound 3.16 µM): 7.85%
- viability, T/C (second compound 0.316 µM, first compound 10 µM): 6.34%
- viability, T/C [7]: 44.7%
- viability, T/C [8]: 15.9%
- viability, T/C (second compound 1 µM, first compound 0.316 µM): 8.7%
- viability, T/C (second compound 1 µM, first compound 1 µM): 7.59%
- viability, T/C (second compound 1 µM, first compound 3.16 µM): 8.26%
- viability, T/C (second compound 1 µM, first compound 10 µM): 6%
- viability, T/C [9]: 45.2%
- viability, T/C [10]: 12.9%
- viability, T/C (second compound 3.16 µM, first compound 0.316 µM): 10%
- viability, T/C (second compound 3.16 µM, first compound 1 µM): 8.6%
- viability, T/C (second compound 3.16 µM, first compound 3.16 µM): 8.2%
- viability, T/C (second compound 3.16 µM, first compound 10 µM): 4.99%
- viability, T/C [11]: 35.5%
- viability, T/C [12]: 26.6%
- viability, T/C (second compound 10 µM, first compound 0.316 µM): 7.13%
- viability, T/C (second compound 10 µM, first compound 1 µM): 10.5%
- viability, T/C (second compound 10 µM, first compound 3.16 µM): 7.26%
- viability, T/C (second compound 10 µM, first compound 10 µM): 11.5%

Compound: Cn1ncnc1[C@H]1c2n[nH]c(=O)c3cc(F)cc(c23)N[C@@H]1c1ccc(F)cc1 + Nc1ccc(C#CCN(C(=O)Cc2ncc(C(F)(F)F)cc2C(F)(F)F)c2ccc(F)cc2)nn1
- IC50 (second compound 0.0316 µM): > 100 nM
- IC50 (second compound 0.1 µM): > 100 nM
- IC50 (second compound 0.316 µM): > 100 nM
- IC50 (second compound 1 µM): > 100 nM
- IC50 (second compound 3.16 µM): > 100 nM
- IC50 (second compound 10 µM): > 100 nM
- viability, T/C (second compound 0.0316 µM, first compound 0.000316 µM): 79.4%
- viability, T/C (second compound 0.0316 µM, first compound 0.001 µM): 105%
- viability, T/C (second compound 0.0316 µM, first compound 0.00316 µM): 86.2%
- viability, T/C (second compound 0.0316 µM, first compound 0.01 µM): 93.1%
- viability, T/C [1]: 99.6%
- viability, T/C [2]: 79.8%
- viability, T/C (second compound 0.1 µM, first compound 0.000316 µM): 92.4%
- viability, T/C (second compound 0.1 µM, first compound 0.001 µM): 89.2%
- viability, T/C (second compound 0.1 µM, first compound 0.00316 µM): 97.3%
- viability, T/C (second compound 0.1 µM, first compound 0.01 µM): 100%
- viability, T/C [3]: 95%
- viability, T/C [4]: 88.7%
- viability, T/C (second compound 0.316 µM, first compound 0.000316 µM): 113%
- viability, T/C (second compound 0.316 µM, first compound 0.001 µM): 111%
- viability, T/C (second compound 0.316 µM, first compound 0.00316 µM): 109%
- viability, T/C (second compound 0.316 µM, first compound 0.01 µM): 97.4%
- viability, T/C [5]: 75.2%
- viability, T/C [6]: 72.8%
- viability, T/C (second compound 1 µM, first compound 0.000316 µM): 112%
- viability, T/C (second compound 1 µM, first compound 0.001 µM): 97.8%
- viability, T/C (second compound 1 µM, first compound 0.00316 µM): 93.3%
- viability, T/C (second compound 1 µM, first compound 0.01 µM): 95.2%
- viability, T/C [7]: 85.8%
- viability, T/C [8]: 68.1%
- viability, T/C (second compound 3.16 µM, first compound 0.000316 µM): 108%
- viability, T/C (second compound 3.16 µM, first compound 0.001 µM): 95.2%
- viability, T/C (second compound 3.16 µM, first compound 0.00316 µM): 100%
- viability, T/C (second compound 3.16 µM, first compound 0.01 µM): 98%
- viability, T/C [9]: 99.7%
- viability, T/C [10]: 93.7%
- viability, T/C (second compound 10 µM, first compound 0.000316 µM): 115%
- viability, T/C (second compound 10 µM, first compound 0.001 µM): 95.9%
- viability, T/C (second compound 10 µM, first compound 0.00316 µM): 101%
- viability, T/C (second compound 10 µM, first compound 0.01 µM): 94.1%
- viability, T/C [11]: 97.9%
- viability, T/C [12]: 87.2%

— PubChem BioAssay AID1963842 (Molecular Pharmacology Branch, DTP, NCI, 2024)
